Assay results taken from the kinase profiling compilation of Christmann-Franck et al. (2016).

What was measured:
Test in all cases: radiometric filter-binding kinase assay, Kinase HotSpot
Conditions in all cases: compound 0.5 µM; ATP 10 µM
ACVR1 (human) = ACVR1 (human) (UniProt Q04771)
ACVRL1 (human) = ACVRL1 (human) (UniProt P37023)
BMX (human) = BMX (human) (UniProt P51813)
BTK (human) = BTK (human) (UniProt Q06187)
CAMKK1 (human) = CAMKK1 (human) (UniProt Q8N5S9)
CDC42BPB (human) = CDC42BPB (human) (UniProt Q9Y5S2)
CDK4 CCND3 (human) = CDK4 CCND3 (human) (UniProt P30281+P11802)
CLK1 (human) = CLK1 (human) (UniProt P49759)
CSNK1E (human) = CSNK1E (human) (UniProt P49674)
DCLK2 (human) = DCLK2 (human) (UniProt Q8N568)
DDR2 (human) = DDR2 (human) (UniProt Q16832)
Sequence of DDR2 (human) (Q16832 whole entry, looked up): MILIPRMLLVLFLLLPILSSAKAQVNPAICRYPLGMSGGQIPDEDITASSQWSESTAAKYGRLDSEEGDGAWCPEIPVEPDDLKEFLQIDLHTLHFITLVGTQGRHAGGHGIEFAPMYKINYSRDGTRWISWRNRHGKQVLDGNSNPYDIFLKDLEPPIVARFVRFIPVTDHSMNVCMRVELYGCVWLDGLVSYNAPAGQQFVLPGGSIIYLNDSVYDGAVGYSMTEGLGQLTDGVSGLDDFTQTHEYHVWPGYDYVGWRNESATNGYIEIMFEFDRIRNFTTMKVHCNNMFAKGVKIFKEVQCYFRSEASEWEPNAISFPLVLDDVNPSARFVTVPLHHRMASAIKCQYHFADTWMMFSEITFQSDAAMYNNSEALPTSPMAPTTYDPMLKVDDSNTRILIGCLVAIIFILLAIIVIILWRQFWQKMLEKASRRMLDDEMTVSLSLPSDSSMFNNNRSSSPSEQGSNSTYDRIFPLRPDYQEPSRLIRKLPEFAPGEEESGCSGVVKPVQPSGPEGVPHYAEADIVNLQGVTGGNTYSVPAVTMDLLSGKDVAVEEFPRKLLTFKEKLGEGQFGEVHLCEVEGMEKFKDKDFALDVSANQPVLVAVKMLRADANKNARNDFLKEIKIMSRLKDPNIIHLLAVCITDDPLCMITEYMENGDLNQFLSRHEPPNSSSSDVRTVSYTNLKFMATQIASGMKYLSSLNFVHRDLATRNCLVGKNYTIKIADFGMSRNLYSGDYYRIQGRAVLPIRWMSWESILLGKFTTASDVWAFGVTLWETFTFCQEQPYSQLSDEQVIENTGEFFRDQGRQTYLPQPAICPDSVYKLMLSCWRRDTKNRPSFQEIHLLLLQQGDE

DYRK1B (human) = DYRK1B (human) (UniProt Q9Y463)
Sequence of DYRK1B (human) (Q9Y463 whole entry, looked up): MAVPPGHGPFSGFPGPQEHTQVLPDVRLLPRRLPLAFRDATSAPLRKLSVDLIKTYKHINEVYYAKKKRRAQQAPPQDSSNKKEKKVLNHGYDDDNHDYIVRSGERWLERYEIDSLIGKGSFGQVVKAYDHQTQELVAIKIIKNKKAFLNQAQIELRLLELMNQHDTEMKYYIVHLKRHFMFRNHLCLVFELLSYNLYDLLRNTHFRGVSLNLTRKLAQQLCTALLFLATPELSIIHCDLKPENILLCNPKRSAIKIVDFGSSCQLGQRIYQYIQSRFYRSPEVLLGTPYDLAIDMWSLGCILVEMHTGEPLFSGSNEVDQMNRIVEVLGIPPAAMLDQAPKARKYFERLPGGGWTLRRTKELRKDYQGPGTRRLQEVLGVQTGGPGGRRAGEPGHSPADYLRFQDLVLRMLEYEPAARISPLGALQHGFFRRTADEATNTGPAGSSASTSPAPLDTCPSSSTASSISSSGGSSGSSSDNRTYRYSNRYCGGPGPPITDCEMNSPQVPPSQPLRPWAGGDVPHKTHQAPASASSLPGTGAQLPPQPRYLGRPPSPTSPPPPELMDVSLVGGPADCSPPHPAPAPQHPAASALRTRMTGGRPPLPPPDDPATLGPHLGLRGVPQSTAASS

EPHB4 (human) = EPHB4 (human) (UniProt P54760)
FES (human) = FES (human) (UniProt P07332)
FLT3 (human) = FLT3 (human) (UniProt P36888)
GSG2 (human) = GSG2 (human) (UniProt Q8TF76)
INSR (human) = INSR (human) (UniProt P06213)
JAK3 JH1 JH2 (human) = JAK3 JH1 JH2 (human) (UniProt P52333)
LCK (human) = LCK (human) (UniProt P06239)
MAP3K14 (human) = MAP3K14 (human) (UniProt Q99558)
MAPK13 (human) = MAPK13 (human) (UniProt O15264)
Sequence of MAPK13 (human) (O15264 whole entry, looked up): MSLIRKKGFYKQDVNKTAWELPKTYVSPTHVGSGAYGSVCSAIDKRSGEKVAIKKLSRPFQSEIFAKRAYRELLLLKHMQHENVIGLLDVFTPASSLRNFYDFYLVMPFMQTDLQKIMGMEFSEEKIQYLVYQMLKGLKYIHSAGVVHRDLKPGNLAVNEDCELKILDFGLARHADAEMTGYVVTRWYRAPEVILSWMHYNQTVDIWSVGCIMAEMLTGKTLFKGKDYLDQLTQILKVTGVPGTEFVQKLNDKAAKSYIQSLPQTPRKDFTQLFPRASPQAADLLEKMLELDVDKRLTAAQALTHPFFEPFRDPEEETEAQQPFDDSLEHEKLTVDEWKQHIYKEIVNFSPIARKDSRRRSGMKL

MKNK2 (human) = MKNK2 (human) (UniProt Q9HBH9)
MYLK2 (human) = MYLK2 (human) (UniProt Q9H1R3)
NEK11 (human) = NEK11 (human) (UniProt Q8NG66)
NEK9 (human) = NEK9 (human) (UniProt Q8TD19)
PAK2 (human) = PAK2 (human) (UniProt Q13177)
PASK (human) = PASK (human) (UniProt Q96RG2)
PHKG2 (human) = PHKG2 (human) (UniProt P15735)
PIM1 (human) = PIM1 (human) (UniProt P11309)
PLK1 (human) = PLK1 (human) (UniProt P53350)
PRKCA (human) = PRKCA (human) (UniProt P17252)
PRKCE (human) = PRKCE (human) (UniProt Q02156)
PRKCZ (human) = PRKCZ (human) (UniProt Q05513)
PTK6 (human) = PTK6 (human) (UniProt Q13882)
RET (human) = RET (human) (UniProt P07949)
RPS6KA4 KD2 (human) = RPS6KA4 KD2 (human) (UniProt O75676)
RPS6KB2 (human) = RPS6KB2 (human) (UniProt Q9UBS0)
Sequence of RPS6KB2 (human) (Q9UBS0 whole entry, looked up): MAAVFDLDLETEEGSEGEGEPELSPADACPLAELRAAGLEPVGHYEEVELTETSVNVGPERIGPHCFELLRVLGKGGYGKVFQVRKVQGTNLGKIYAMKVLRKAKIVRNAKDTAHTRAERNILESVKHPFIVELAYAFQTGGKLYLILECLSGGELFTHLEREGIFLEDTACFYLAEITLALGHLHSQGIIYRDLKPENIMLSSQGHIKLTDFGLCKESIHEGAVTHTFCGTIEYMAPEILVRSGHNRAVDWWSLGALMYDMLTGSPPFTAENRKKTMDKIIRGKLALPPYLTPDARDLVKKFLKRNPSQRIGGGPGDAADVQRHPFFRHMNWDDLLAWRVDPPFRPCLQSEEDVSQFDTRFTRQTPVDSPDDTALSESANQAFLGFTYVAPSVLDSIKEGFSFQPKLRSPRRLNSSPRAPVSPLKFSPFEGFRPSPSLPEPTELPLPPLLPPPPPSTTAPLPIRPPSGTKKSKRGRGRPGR

SRPK3 (human) = SRPK3 (human) (UniProt Q9UPE1)
STK17A (human) = STK17A (human) (UniProt Q9UEE5)
STK25 (human) = STK25 (human) (UniProt O00506)
Sequence of STK25 (human) (O00506 whole entry, looked up): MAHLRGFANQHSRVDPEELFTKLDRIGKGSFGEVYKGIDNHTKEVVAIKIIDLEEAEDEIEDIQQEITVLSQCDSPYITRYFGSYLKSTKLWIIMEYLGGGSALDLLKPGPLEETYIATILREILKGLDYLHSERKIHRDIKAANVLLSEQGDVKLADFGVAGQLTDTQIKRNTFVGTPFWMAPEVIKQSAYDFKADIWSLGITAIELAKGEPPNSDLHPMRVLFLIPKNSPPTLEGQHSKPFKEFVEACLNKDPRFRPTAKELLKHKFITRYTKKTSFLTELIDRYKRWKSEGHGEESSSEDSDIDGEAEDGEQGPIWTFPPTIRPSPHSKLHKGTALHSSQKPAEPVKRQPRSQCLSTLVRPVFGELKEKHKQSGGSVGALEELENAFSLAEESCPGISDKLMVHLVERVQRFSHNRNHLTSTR

ULK2 (human) = ULK2 (human) (UniProt Q8IYT8)
Sequence of ULK2 (human) (Q8IYT8 whole entry, looked up): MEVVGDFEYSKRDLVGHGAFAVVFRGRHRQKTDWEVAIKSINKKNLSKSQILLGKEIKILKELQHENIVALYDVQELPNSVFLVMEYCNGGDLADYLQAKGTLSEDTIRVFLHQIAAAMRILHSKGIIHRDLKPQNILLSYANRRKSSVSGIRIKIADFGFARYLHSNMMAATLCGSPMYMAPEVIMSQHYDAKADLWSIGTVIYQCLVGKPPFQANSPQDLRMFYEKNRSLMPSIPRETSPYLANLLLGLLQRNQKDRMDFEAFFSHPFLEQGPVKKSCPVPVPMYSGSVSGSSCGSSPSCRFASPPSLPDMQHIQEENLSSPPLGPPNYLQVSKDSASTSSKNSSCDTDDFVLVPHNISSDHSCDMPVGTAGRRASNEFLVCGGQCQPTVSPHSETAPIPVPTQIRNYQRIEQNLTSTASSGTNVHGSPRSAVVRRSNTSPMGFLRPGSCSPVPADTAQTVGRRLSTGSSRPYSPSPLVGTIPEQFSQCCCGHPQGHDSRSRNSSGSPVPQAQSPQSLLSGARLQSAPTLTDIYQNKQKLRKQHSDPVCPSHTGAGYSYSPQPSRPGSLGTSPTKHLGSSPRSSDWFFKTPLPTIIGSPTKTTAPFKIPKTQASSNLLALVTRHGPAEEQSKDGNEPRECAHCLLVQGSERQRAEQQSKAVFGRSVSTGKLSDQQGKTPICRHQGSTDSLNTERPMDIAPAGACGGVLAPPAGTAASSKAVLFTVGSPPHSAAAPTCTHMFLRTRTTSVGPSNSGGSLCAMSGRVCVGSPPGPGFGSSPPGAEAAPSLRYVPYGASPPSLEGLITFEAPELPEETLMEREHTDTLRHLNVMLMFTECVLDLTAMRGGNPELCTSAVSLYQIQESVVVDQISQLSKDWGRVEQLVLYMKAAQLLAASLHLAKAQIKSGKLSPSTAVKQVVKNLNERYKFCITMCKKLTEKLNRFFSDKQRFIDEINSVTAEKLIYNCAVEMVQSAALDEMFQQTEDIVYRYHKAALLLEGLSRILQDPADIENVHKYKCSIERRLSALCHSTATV

PRKCH (human) = PRKCH (human) (UniProt P24723)

Sequence of BTK (human) (Q06187 whole entry, looked up): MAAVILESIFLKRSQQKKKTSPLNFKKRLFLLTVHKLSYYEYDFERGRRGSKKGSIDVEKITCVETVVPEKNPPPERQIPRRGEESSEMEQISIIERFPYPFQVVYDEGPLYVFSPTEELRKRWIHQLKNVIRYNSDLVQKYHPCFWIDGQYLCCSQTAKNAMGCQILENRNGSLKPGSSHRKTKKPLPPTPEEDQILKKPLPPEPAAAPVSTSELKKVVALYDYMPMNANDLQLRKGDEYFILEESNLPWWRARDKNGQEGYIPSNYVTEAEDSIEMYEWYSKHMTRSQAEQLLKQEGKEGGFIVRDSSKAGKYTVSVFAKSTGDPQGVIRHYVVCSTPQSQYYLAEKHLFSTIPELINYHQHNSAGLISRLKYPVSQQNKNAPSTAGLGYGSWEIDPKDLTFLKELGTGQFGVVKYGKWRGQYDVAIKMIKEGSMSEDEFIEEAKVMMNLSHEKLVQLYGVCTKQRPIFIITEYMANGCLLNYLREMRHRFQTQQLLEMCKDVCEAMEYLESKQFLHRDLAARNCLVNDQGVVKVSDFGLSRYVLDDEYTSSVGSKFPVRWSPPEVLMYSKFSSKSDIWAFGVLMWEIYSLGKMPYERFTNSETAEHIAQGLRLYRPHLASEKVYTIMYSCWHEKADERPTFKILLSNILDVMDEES
Sequence of ACVR1 (human) (Q04771 whole entry, looked up): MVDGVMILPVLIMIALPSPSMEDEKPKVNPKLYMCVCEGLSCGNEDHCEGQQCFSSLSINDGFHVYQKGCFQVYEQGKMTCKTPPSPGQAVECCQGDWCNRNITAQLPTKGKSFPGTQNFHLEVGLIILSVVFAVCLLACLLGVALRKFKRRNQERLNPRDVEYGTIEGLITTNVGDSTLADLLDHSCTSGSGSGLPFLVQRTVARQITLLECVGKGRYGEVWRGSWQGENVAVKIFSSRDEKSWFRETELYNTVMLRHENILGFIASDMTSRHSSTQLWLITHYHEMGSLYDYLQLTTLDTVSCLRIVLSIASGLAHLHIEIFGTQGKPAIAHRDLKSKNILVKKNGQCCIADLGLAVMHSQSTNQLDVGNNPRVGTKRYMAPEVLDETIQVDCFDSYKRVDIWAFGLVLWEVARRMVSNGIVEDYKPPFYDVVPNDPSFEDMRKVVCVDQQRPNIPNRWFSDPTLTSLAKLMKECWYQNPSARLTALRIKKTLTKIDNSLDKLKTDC

CS(=O)c1ccc(-c2nc(-c3ccc(F)cc3)c(-c3ccncc3)[nH]2)cc1 (configuration not stated)
residual activity (ACVR1 (human)): 97.4%
residual activity (ACVRL1 (human)): 97.7%
residual activity (BMX (human)): 94.4%
residual activity (BTK (human)): 97.2%
residual activity (CAMKK1 (human)): 125%
residual activity (CDC42BPB (human)): 105%
residual activity (CDK4 CCND3 (human)): 105%
residual activity (CLK1 (human)): 101%
residual activity (CSNK1E (human)): 31%
residual activity (DCLK2 (human)): 99.8%
residual activity (DDR2 (human)): 103%
residual activity (DYRK1B (human)): 104%
residual activity (EPHB4 (human)): 91.1%
residual activity (FES (human)): 97.3%
residual activity (FLT3 (human)): 91.5%
residual activity (GSG2 (human)): 88.3%
residual activity (INSR (human)): 88.9%
residual activity (JAK3 JH1 JH2 (human)): 93.9%
residual activity (LCK (human)): 95%
residual activity (MAP3K14 (human)): 118%
residual activity (MAPK13 (human)): 106%
residual activity (MKNK2 (human)): 94.4%
residual activity (MYLK2 (human)): 99.9%
residual activity (NEK11 (human)): 81.3%
residual activity (NEK9 (human)): 99.1%
residual activity (PAK2 (human)): 78%
residual activity (PASK (human)): 99.1%
residual activity (PHKG2 (human)): 102%
residual activity (PIM1 (human)): 103%
residual activity (PLK1 (human)): 100%
residual activity (PRKCA (human)): 92.3%
residual activity (PRKCE (human)): 115%
residual activity (PRKCZ (human)): 103%
residual activity (PTK6 (human)): 54.2%
residual activity (RET (human)): 85.1%
residual activity (RPS6KA4 KD2 (human)): 99.6%
residual activity (RPS6KB2 (human)): 97.2%
residual activity (SRPK3 (human)): 99.4%
residual activity (STK17A (human)): 98.9%
residual activity (STK25 (human)): 111%
residual activity (ULK2 (human)): 83.5%

Nc1nc(Nc2ccc(S(N)(=O)=O)cc2)nn1C(=S)Nc1c(F)cccc1F
residual activity (ACVR1 (human)): 60.4%
residual activity (ACVRL1 (human)): 15.1%
residual activity (BMX (human)): 77.5%
residual activity (BTK (human)): 84.1%
residual activity (CAMKK1 (human)): 36%
residual activity (CDC42BPB (human)): 48.1%
residual activity (CDK4 CCND3 (human)): 3.67%
residual activity (CLK1 (human)): 2.26%
residual activity (CSNK1E (human)): 91.8%
residual activity (DCLK2 (human)): 40.4%
residual activity (DDR2 (human)): 130%
residual activity (DYRK1B (human)): 14.1%
residual activity (EPHB4 (human)): 51%
residual activity (FES (human)): 10.2%
residual activity (FLT3 (human)): 1.07%
residual activity (GSG2 (human)): 85.3%
residual activity (JAK3 JH1 JH2 (human)): 5.21%
residual activity (LCK (human)): 23.6%
residual activity (MAP3K14 (human)): 29.1%
residual activity (MAPK13 (human)): 77.1%
residual activity (MKNK2 (human)): 17.2%
residual activity (MYLK2 (human)): 66.6%
residual activity (NEK11 (human)): 101%
residual activity (NEK9 (human)): 39.1%
residual activity (PAK2 (human)): 26.4%
residual activity (PASK (human)): 91.8%
residual activity (PHKG2 (human)): 95.5%
residual activity (PIM1 (human)): 90.7%
residual activity (PLK1 (human)): 92.1%
residual activity (PRKCA (human)): 46.2%
residual activity (PRKCE (human)): 11.5%
residual activity (PRKCH (human)): 45.7%
residual activity (PRKCZ (human)): 83.7%
residual activity (PTK6 (human)): 34.8%
residual activity (RET (human)): 3.09%
residual activity (RPS6KA4 KD2 (human)): 42.8%
residual activity (RPS6KB2 (human)): 96.2%
residual activity (SRPK3 (human)): 48.7%
residual activity (STK17A (human)): 11.1%
residual activity (STK25 (human)): 8.18%
residual activity (ULK2 (human)): 4.73%
